Test results reported in publication PMC4607639 (Bioorganic & medicinal chemistry letters, 2015).

Legend:
[1] = Aqueous solubility, shake-flask procedure; format: physicochemical; conditions: for fold less soluble than the corresponding triazines: pyrimidines 7d, 8c versus triazines 7g, 8f
[2] = test system: MT-2 human T-cells; assay: Cytotoxicity, inhibition of MT-2 cell growth; format: cell-based; conditions: inhibition of MT-2 cell growth by 50%

fold less soluble than the corresponding triazines [1]	SMILES	other results
2-4 fold	Cc1cn2cc(C#N)cc2c(C)c1Nc1ccnc(Nc2ccc(C#N)cc2)n1 [Compound 7d]	–
2-4 fold	Cc1cc2cc(C#N)ccc2c(C)c1Nc1ccnc(Nc2ccc(C#N)cc2)n1 [Compound 8c]	–
–	Cc1cc2cc(C#N)ccc2c(C)c1Nc1ncnc(Nc2ccc(C#N)cc2)n1 [Compound 8f]	solubility fold greater than for rilpivirine ([1]; versus rilpivirine): ca. 1000 fold
–	N#Cc1ccc(Nc2ncnc(Nc3c(F)cc4cc(C#N)ccc4c3F)n2)cc1 [Compound 8h]	CC50 [2]: no cytotoxicity
